55 compounds from patent publication US20050130989A1, “N-arylheteroaromatic products compositions containing them and use thereof” (Aventis Pharma S. A., priority 2003, published 2005) can be followed below.

Molecules are shown by their SMILES. Where only a bound is given, the exact number is not on record here.

The target of one test is T1, tubulin (Sus scrofa, UniProt P02550+P02554).
T1 construct: Tubulin is purified from pig brain according to published methods; from tissue; host or cells: pig brain
Nature of the test: Evaluation of the inhibition of tubulin polymerization (turbidimetry). The conditions noted are these: tubulin 10 μm (1 mg/ml), 37° C., turbidity at 350 nm; concentration that inhibits the rate of polymerization by 50%; read-out: Inhibition of tubulin polymerization IC 50 (μm). It counts as biochemical, pig. Summed up: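 Pig brain tubulin (>95% pure), 10 μm in MES pH 6.8/30% glycerol buffer plus 1 mM GTP and 6 mM MgCl2, with compound at 0.5–10 μm added before polymerization. Polymerization triggered by shift from 6° C to 37° C, followed by turbidity at 350 nm; IC50 is 50% inhibition of polymerization rate.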

Another test relates to HCT116 cells. Nature of the test: Inhibition of proliferation of the human colon tumor line HCT116 ([14C]-thymidine incorporation). As to conditions: Homo sapiens, HCT-116, 48 h, 48 hours at 37° C., read-out: Inhibition of HCT116 proliferation IC 50 (μm). Type of test: cell-based. On the procedure: The proliferation of HCT116 cells is evaluated by measuring the incorporation of [^14C]-thymidine in the following manner. The HCT 116 cells (obtained from the ATCC) are cultured in a DMEM medium (Gibco) containing 10% fetal calf serum and antibiotics (1% penicillin, 1% streptomycin). To perform the proliferation test, the cells are inoculated in cytostar 96-well microplates (Amersham), at a rate of 5000 cells per well. [^14C]-thymidine (0.1 μCi/well) and the products to be evaluated are then added. Variable concentrations of products up to 10 μm are used; the DMSO (solvent used to dissolve the products) should not exceed 0.5% in the medium. 48 hours after incubation at 37° C., the radioactivity incorporated into the cells is measured by counting the plate in a TRI-LUX counter (Wallac). The IC50 is defined as the concentration of product that reduces the radioactivity by 50% compared with an untreated control. A product whose IC50 is less than 3 μm is considered cytotoxic.
A general note: Uptake of a labelled nucleoside into DNA is a usual measure of proliferation.

T1 sequence (P02550 whole entry): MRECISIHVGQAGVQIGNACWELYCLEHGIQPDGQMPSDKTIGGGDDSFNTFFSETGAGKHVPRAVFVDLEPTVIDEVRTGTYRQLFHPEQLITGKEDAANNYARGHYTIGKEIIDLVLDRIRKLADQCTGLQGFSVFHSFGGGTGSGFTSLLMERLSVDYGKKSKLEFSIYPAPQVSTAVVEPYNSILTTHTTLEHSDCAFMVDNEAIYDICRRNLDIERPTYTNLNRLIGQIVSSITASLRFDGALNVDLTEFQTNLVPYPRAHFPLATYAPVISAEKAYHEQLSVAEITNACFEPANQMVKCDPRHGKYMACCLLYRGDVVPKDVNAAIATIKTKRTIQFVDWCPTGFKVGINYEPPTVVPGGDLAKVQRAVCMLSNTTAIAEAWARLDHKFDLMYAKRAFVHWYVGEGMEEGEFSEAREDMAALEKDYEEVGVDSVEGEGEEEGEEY
T1 sequence (P02554 whole entry): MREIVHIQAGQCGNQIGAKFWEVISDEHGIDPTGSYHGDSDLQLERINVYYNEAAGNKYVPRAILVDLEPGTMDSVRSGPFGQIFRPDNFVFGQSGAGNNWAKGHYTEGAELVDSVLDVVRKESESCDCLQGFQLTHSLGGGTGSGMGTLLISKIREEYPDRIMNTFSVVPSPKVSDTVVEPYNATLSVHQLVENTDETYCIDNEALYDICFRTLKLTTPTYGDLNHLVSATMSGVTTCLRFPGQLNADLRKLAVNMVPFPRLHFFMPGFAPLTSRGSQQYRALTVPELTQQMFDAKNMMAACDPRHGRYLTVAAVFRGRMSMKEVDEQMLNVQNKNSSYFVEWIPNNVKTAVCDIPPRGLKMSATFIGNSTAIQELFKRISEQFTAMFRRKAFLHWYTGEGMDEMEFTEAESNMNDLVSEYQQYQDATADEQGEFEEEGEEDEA

Turning to `CCc1ccccc1N1CCN(C(=O)c2cc(C)nn2-c2cccc(Cl)c2)CC1` [3/68], the IC50 worked out at 1500 nM at tubulin and 36 nM in the test with HCT116 cells.

As for `Cc1cc(C(=O)N2CCN(c3ccc(Cl)cc3)CC2)n(-c2cccc(Cl)c2)n1` [3/69], the IC50 on tubulin was found to be 18000 nM; in the test with HCT116 cells, 347 nM.

For `CCOc1ccccc1N1CCN(C(=O)c2cc(C)nn2-c2cccc(Cl)c2)CC1` [3/71], the IC50 on tubulin stood at 2500 nM; in the test with HCT116 cells, 220 nM.

As for `Cc1cc(C(=O)N2CCN(c3cccc(C(F)(F)F)c3)CC2)n(-c2ccc(Cl)cc2)n1` [3/72], the IC50 was 7000 nM at tubulin and 143 nM in the test with HCT116 cells.

In the case of `COc1cccc(N2CCN(C(=O)c3cc(C)nn3-c3ccc(Cl)cc3)CC2)c1` [3/73], the IC50 on tubulin amounted to 2500 nM; in the test with HCT116 cells, 111 nM.

Regarding `Cc1cccc(N2CCN(C(=O)c3cc(C)nn3-c3ccc(Cl)cc3)CC2)c1` [3/74], the results for the IC50 on tubulin and in the test with HCT116 cells were 7500 nM and 298 nM, respectively.

In the case of `COc1ccc(Cl)cc1N1CCN(C(=O)c2cc(C)nn2-c2ccc(Cl)cc2)CC1` [3/75], the IC50 stood at 17000 nM on tubulin and 468 nM in the test on HCT116 cells.

Regarding `Cc1ccc(-n2nc(C)cc2C(=O)N2CCN(c3ccc(Cl)c(Cl)c3)CC2)cc1` [3/76], the IC50 came out at 3000 nM on tubulin and 1080 nM in the test with HCT116 cells.

With `COc1cccc(N2CCN(C(=O)c3cc(C)nn3-c3ccc(C)cc3)CC2)c1` [3/80], the figures for the IC50 at tubulin and in the test on HCT116 cells were 5000 nM and 78 nM, respectively.

Regarding `COc1cccc(-n2nc(C)cc2C(=O)N2CCN(c3ccc(Cl)c(Cl)c3)CC2)c1` [3/81], the IC50 on tubulin was 3500 nM; with HCT116 cells, 295 nM.

As to `COc1cccc(N2CCN(C(=O)c3cc(C)nn3-c3cccc(OC)c3)CC2)c1` [3/82], the results for the IC50 at tubulin and with HCT116 cells were 1200 nM and 8.3 nM, respectively.

Consider `COc1ccc(Cl)cc1N1CCN(C(=O)c2cc(C)nn2-c2ccccc2)CC1` [3/83], for which the IC50 on tubulin worked out at 1500 nM; in the test with HCT116 cells it was 6.6 nM.

`Cc1cc(C(=O)N2CCN(c3ccccc3C(F)(F)F)CC2)n(-c2ccccc2)n1` [3/84]: the IC50 on tubulin is 5500 nM; with HCT116 cells it was 176 nM.

Consider `Cc1cc(C(=O)N2CCN(c3ccc(C)c(C)c3)CC2)n(-c2ccccc2F)n1` [3/86], for which the IC50 at tubulin stood at 12500 nM; in the test with HCT116 cells, 385 nM.

On to `Cc1cc(C(=O)N2CCN(c3ccccc3C)CC2)n(-c2ccccc2F)n1` [3/87], for which the figures for the IC50 at tubulin and with HCT116 cells were 15000 nM and 238 nM, respectively.

For the compound `COc1ccc(Cl)cc1N1CCN(C(=O)c2cc(C)nn2-c2ccccc2F)CC1` [3/88], the figures for the IC50 on tubulin and in the test on HCT116 cells were 6000 nM and 60.5 nM, respectively.

Consider `Cc1cc(C(=O)N2CCN(c3ccccc3)CC2)n(-c2cccc(F)c2)n1` [3/89], for which the IC50 on tubulin is 2200 nM; in the test with HCT116 cells, 14 nM.

For `COc1ccccc1N1CCN(C(=O)c2cc(C)nn2-c2cccc(F)c2)CC1` [3/90], the IC50 on tubulin stood at 3000 nM; in the test on HCT116 cells, 33 nM.

For `Cc1cc(C(=O)N2CCN(c3cccc(C(F)(F)F)c3)CC2)n(-c2cccc(F)c2)n1` [3/91], the IC50 on tubulin was determined as 1500 nM; with HCT116 cells, 14 nM.

Take `Cc1cc(C(=O)N2CCN(c3ccc(F)cc3)CC2)n(-c2cccc(F)c2)n1` [3/92]: the IC50 at tubulin worked out at 12500 nM; in the test on HCT116 cells it was 158 nM.

In the case of `Cc1cc(C(=O)N2CCN(c3ccc(Cl)c(Cl)c3)CC2)n(-c2cccc(F)c2)n1` [3/93], the results for the IC50 at tubulin and with HCT116 cells were 1700 nM and 32 nM, respectively.

With `Cc1cc(C(=O)N2CCN(c3cccc(C)c3C)CC2)n(-c2cccc(F)c2)n1` [3/94], the IC50 at tubulin was 800 nM; with HCT116 cells, 32 nM.

As to `CCc1ccccc1N1CCN(C(=O)c2cc(C)nn2-c2cccc(F)c2)CC1` [3/95], the results for the IC50 on tubulin and in the test with HCT116 cells were 3000 nM and 164 nM, respectively.

For the compound `COc1cccc(N2CCN(C(=O)c3cc(C)nn3-c3cccc(F)c3)CC2)c1` [3/96], the IC50 worked out at 1800 nM on tubulin and 3.6 nM in the test with HCT116 cells.

Take `CSc1ccccc1N1CCN(C(=O)c2cc(C)nn2-c2cccc(F)c2)CC1` [3/97]: the IC50 is 3000 nM at tubulin and 83 nM in the test on HCT116 cells.

Consider `CCOc1ccccc1N1CCN(C(=O)c2cc(C)nn2-c2cccc(F)c2)CC1` [3/98], for which the IC50 at tubulin stood at 7000 nM; with HCT116 cells it was 157 nM.

For the compound `Cc1cc(C(=O)N2CCN(c3cccc(Cl)c3Cl)CC2)n(-c2cccc(F)c2)n1` [3/99], the results for the IC50 at tubulin and in the test on HCT116 cells were 2000 nM and 41 nM, respectively.

As for `Cc1cc(C(=O)N2CCN(c3ccccc3)CC2)n(-c2ccc(F)cc2)n1` [3/101], the IC50 on tubulin is 5000 nM; in the test with HCT116 cells, 569 nM.

`COc1ccccc1N1CCN(C(=O)c2cc(C)nn2-c2ccc(F)cc2)CC1` [3/102]: the IC50 stood at 13000 nM at tubulin and 181 nM in the test on HCT116 cells.

With `CCc1ccccc1N1CCN(C(=O)c2cc(C)nn2-c2ccc(F)cc2)CC1` [3/104], the IC50 worked out at 5000 nM on tubulin and 285 nM in the test on HCT116 cells.

On to `COc1ccc(-n2nc(C)cc2C(=O)N2CCN(c3cccc(OC)c3)CC2)cc1` [3/105], for which the IC50 on tubulin came out at 4500 nM; in the test with HCT116 cells, 118 nM.

On to `COc1ccc(-n2nc(C)cc2C(=O)N2CCN(c3cccc(Cl)c3Cl)CC2)cc1` [3/106], for which the results for the IC50 at tubulin and in the test with HCT116 cells were 7000 nM and 985 nM, respectively.

For `Cc1cccc(N2CCN(C(=O)c3cc(C)nn3-c3ccccc3)CC2C)c1` (centres unmarked) [3/109], the IC50 on tubulin came to 8000 nM; in the test on HCT116 cells it was 4330 nM.

As for `Cc1cc(C(=O)N2CCN(c3ccccc3Cl)CC2)n(-c2ccccc2)n1` [3/112], the IC50 on tubulin stood at 15000 nM; in the test on HCT116 cells, 1520 nM.

For `Cc1cccc(-n2nc(C)cc2C(=O)N2CCN(c3ccc(Cl)c(Cl)c3)CC2)c1` [3/113], the IC50 at tubulin turned out to be 1200 nM; in the test on HCT116 cells, 75 nM.

On to `Cc1cccc(-n2nc(C)cc2C(=O)N2CCN(c3cccc(Cl)c3Cl)CC2)c1` [3/116], for which the IC50 on tubulin was 3000 nM; with HCT116 cells it was 141 nM.

For the compound `Cc1cc(C(=O)N2CCN(c3cccc(Cl)c3Cl)CC2)n(-c2ccc(F)cc2)n1` [3/119], the IC50 on tubulin amounted to 3100 nM; in the test with HCT116 cells it was 562 nM.

For `Cc1cc(C(=O)N2CCN(c3cccc(C(F)(F)F)c3)CC2)n(-c2cccc(Cl)c2)n1` [3/121], the IC50 at tubulin turned out to be 3300 nM; in the test on HCT116 cells, 51 nM.

Turning to `Cc1cccc(N2CCN(C(=O)c3cc(C)nn3-c3cccc(Cl)c3)CC2)c1` [3/123], the IC50 on tubulin was found to be 3300 nM; in the test with HCT116 cells, 51 nM.

With `Cc1cc(C(=O)N2CCN(c3cccc(Cl)c3Cl)CC2)n(-c2cccc(Cl)c2)n1` [3/125], the IC50 on tubulin was 12500 nM; in the test with HCT116 cells it was 148 nM.

For the compound `Cc1cc(C(=O)N2CCN(c3ccccc3C(F)(F)F)CC2)n(-c2cccc(Cl)c2)n1` [3/128], the IC50 turned out to be 12000 nM at tubulin and 901 nM in the test with HCT116 cells.

For `Cc1cc(C(=O)N2CCN(c3cccc(Cl)c3Cl)CC2)n(-c2ccc(Cl)cc2)n1` [3/129], the IC50 on tubulin is less than 25000 nM; in the test with HCT116 cells, 2560 nM.

Turning to `Cc1ccc(-n2nc(C)cc2C(=O)N2CCN(c3cccc(C(F)(F)F)c3)CC2)cc1` [3/131], the IC50 on tubulin came out at 3100 nM; in the test on HCT116 cells, 135 nM.

Take `Cc1ccc(-n2nc(C)cc2C(=O)N2CCN(c3cccc(Cl)c3Cl)CC2)cc1` [3/132]: the IC50 on tubulin stood at 20000 nM; with HCT116 cells, 3100 nM.

For `COc1cccc(-n2nc(C)cc2C(=O)N2CCN(c3cccc(C(F)(F)F)c3)CC2)c1` [3/133], the IC50 amounted to 6200 nM on tubulin and 214 nM in the test with HCT116 cells.

In the case of `COc1cccc(-n2nc(C)cc2C(=O)N2CCN(c3cccc(C)c3C)CC2)c1` [3/135], the IC50 on tubulin was found to be 6000 nM; in the test with HCT116 cells, 321 nM.

`CCc1ccccc1N1CCN(C(=O)c2cc(C)nn2-c2cccc(OC)c2)CC1` [3/136]: the IC50 at tubulin turned out to be 12500 nM; in the test with HCT116 cells, 932 nM.

On to `COc1cccc(-n2nc(C)cc2C(=O)N2CCN(c3cccc4ccccc34)CC2)c1` [3/138], for which the IC50 at tubulin was less than 25000 nM; in the test with HCT116 cells it was 20000 nM.

With `COc1cccc(-n2nc(C)cc2C(=O)N2CCN(c3cccc(Cl)c3Cl)CC2)c1` [3/139], the results for the IC50 at tubulin and in the test on HCT116 cells were less than 25000 nM and 1350 nM, respectively.

In the case of `COc1cccc(-n2nc(C)cc2C(=O)N2CCN(c3ccc4c(c3)OCCO4)CC2)c1` [3/140], the IC50 was less than 25000 nM on tubulin and 2970 nM in the test on HCT116 cells.

Regarding `Cc1cc(C(=O)N2CCN(c3cccc(C)c3C)CC2)n(-c2ccccc2F)n1` [3/141], the IC50 at tubulin came to 7000 nM; in the test on HCT116 cells, 66 nM.

As to `CCc1ccccc1N1CCN(C(=O)c2cc(C)nn2-c2ccccc2F)CC1` [3/142], the IC50 amounted to 3800 nM at tubulin and 110 nM in the test with HCT116 cells.

For `Cc1cc(C(=O)N2CCN(c3cccc4ccccc34)CC2)n(-c2ccccc2F)n1` [3/143], the values for the IC50 at tubulin and in the test with HCT116 cells were 2500 nM and 140 nM, respectively.

Take `Cc1cc(C(=O)N2CCN(c3ccccc3C(F)(F)F)CC2)n(-c2ccccc2F)n1` [3/145]: the values for the IC50 at tubulin and with HCT116 cells were 10000 nM and 1510 nM, respectively.

For the compound `Cc1cc(C(=O)N2CCN(c3ccc(Cl)c(Cl)c3)CC2)n(-c2ccc(F)cc2)n1` [3/146], the IC50 on tubulin was found to be 1300 nM; with HCT116 cells it was 43 nM.
